The values below come from ChEMBL document CHEMBL1201862, “PubChem BioAssay data set” (2004).

Among the test systems are 786-0; A549; CCRF-CEM; HCT-116; HCT-15; IGROV-1; LOX IMVI; MDA-MB-435; MDA-N; MOLT-4; Malme-3M; NCI-H226; NCI/ADR-RES; SK-OV-3; SNB-75; U-251; CAKI-1; HOP-92; RXF 393.
Test in all cases: inhibition of tumour cell growth, NCI panel, 48 h

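Five compound concentrations were applied to cells in 96-well plates for 48 hours; endpoints were derived by simple linear interpolation of the resulting dose-response curve. GI50 is the concentration that inhibits growth by half.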 The source made the active and inactive calls. Rule as the data show it: active = GI50 up to about 1.1 µM and inactive = higher. Bounds are passed on as bounds.

For `CC(=O)Oc1cc2oc(=O)cc(C)c2cc1OC(C)=O`, the GI50 in the test on 786-0 is 61 µM (inactive); in the test on A549 it was 37.3 µM (inactive); in the test on CCRF-CEM, 16.7 µM (inactive); with HCT-116 it was 44 µM (inactive); in the test with HCT-15, 38.5 µM; in the test on IGROV-1, 27.9 µM (inactive). Further, the GI50 in the test on LOX IMVI is 40.2 µM (inactive); with MDA-MB-435, 48.4 µM (inactive); in the test with MDA-N, > 100 µM (inactive); in the test with MOLT-4 it was 74.8 µM (inactive); in the test with Malme-3M, 28.5 µM (inactive); in the test on NCI-H226 it was 40.2 µM (inactive). The GI50 in the test with NCI/ADR-RES is 32.4 µM (inactive); in the test with SK-OV-3, > 100 µM (inactive); in the test with SNB-75, 48.4 µM (inactive); in the test with U-251, 51.1 µM (inactive).
As to `c1ccc2c3c([nH]c2c1)C1CCCN1CC3` (centres undefined), the GI50 in the test on 786-0 was > 10 µM (inactive); in the test on CAKI-1, > 10 µM (inactive); with CCRF-CEM it was > 10 µM (inactive); in the test on HCT-15, above 10 µM; in the test on HOP-92 it was > 10 µM (inactive); in the test with IGROV-1, > 10 µM (inactive). In addition, the GI50 with LOX IMVI, with MDA-MB-435, in the test with MDA-N, in the test on MOLT-4, in the test on Malme-3M and in the test on NCI-H226 was > 10 µM (inactive) in each case. The GI50 with NCI/ADR-RES, with RXF 393, in the test on SK-OV-3, with SNB-75 and with U-251 was > 10 µM (inactive) throughout.
As for `c1ccc(C2SCc3nc4ccccc4n32)cc1` (centres undefined), the GI50 in the test with 786-0 is > 100 µM (inactive); in the test with A549, 50.1 µM (inactive); in the test on CAKI-1, 42.7 µM (inactive); with CCRF-CEM, 76.2 µM (inactive); in the test on HCT-116 it was 19.7 µM (inactive); in the test on HCT-15, 44.4 µM. Besides, the GI50 was 22.2 µM (inactive) with HOP-92; 29.2 µM (inactive) in the test on IGROV-1; 39.9 µM (inactive) in the test with LOX IMVI; 28.2 µM (inactive) with MOLT-4; 38.3 µM (inactive) with Malme-3M; 17.8 µM (inactive) with NCI-H226. Also, the GI50 was 53.2 µM (inactive) in the test with RXF 393, 91.8 µM (inactive) with SK-OV-3, 3.14 µM (inactive) in the test with SNB-75 and 58.7 µM (inactive) in the test with U-251.
Consider `O=C1C=C(N2CCCC2)C=C(N2CCCC2)C1`, for which the GI50 is > 100 µM (inactive) with 786-0; > 100 µM (inactive) in the test on A549; > 100 µM (inactive) with CAKI-1; > 100 µM (inactive) in the test on CCRF-CEM; > 100 µM (inactive) in the test on HCT-116; above 100 µM in the test on HCT-15. The GI50 with HOP-92, in the test with IGROV-1, in the test on LOX IMVI, in the test with MOLT-4, with Malme-3M and in the test with NCI-H226 was > 100 µM (inactive) in each case. Moreover, the GI50 is > 100 µM (inactive) with RXF 393, > 100 µM (inactive) in the test with SK-OV-3, 85.1 µM (inactive) with SNB-75 and > 100 µM (inactive) in the test on U-251.
With `CC1(C)CC[C@]2(C(=O)O)CC[C@]3(C)C(=CC[C@@H]4[C@@]5(C)CC[C@@H]6OC(C)(C)OC[C@@]6(C)[C@@H]5CC[C@]43C)[C@H]2C1`, the GI50 is 10 µM (inactive) in the test with 786-0; 9.91 µM (inactive) in the test with CAKI-1; 15.4 µM (inactive) in the test with CCRF-CEM; 5.33 µM (inactive) with HCT-116; 2.87 µM with HCT-15; 11.4 µM (inactive) with IGROV-1. In addition, the GI50 is 4.8 µM (inactive) in the test with LOX IMVI; 8.55 µM (inactive) in the test on MDA-MB-435; 13.3 µM (inactive) in the test on MDA-N; 11.5 µM (inactive) in the test on MOLT-4; 12.6 µM (inactive) in the test on Malme-3M; 16.9 µM (inactive) in the test with NCI/ADR-RES. Further, the GI50 is 17.1 µM (inactive) with SK-OV-3, 11 µM (inactive) with SNB-75 and 5.89 µM (inactive) in the test with U-251.
For `Clc1ccc(-c2c(C3=NCCN3)nnn2-c2ccccc2)cc1`, the GI50 in the test on 786-0 was > 100 µM (inactive); in the test on A549, > 100 µM (inactive); in the test with CAKI-1, > 100 µM (inactive); in the test with CCRF-CEM, > 100 µM (inactive); in the test on HCT-116, 83.4 µM (inactive); in the test with HCT-15 it was above 100 µM. Besides, the GI50 in the test with HOP-92 is 92 µM (inactive); in the test with IGROV-1 it was > 100 µM (inactive); with LOX IMVI, > 100 µM (inactive); in the test on MOLT-4, 80.2 µM (inactive); in the test with Malme-3M, > 100 µM (inactive); in the test on NCI-H226, > 100 µM (inactive). The GI50 with RXF 393, in the test with SK-OV-3, with SNB-75 and in the test on U-251 was > 100 µM (inactive) in each case.
With `CN(C)CCNC(=O)C1COc2cc(-c3cc(=O)c4ccccc4o3)ccc2O1` (centres undefined), the GI50 was 18.1 µM (inactive) in the test with 786-0; 16.9 µM (inactive) in the test with A549; 17.1 µM (inactive) with CAKI-1; 30.4 µM (inactive) in the test with CCRF-CEM; 15.1 µM (inactive) in the test with HCT-116; 27.7 µM in the test with HCT-15. The GI50 in the test on HOP-92 is > 100 µM (inactive); in the test with IGROV-1, 22.2 µM (inactive); with LOX IMVI, 19.6 µM (inactive); in the test with MOLT-4 it was 15.7 µM (inactive); in the test with Malme-3M, 21.7 µM (inactive); with NCI-H226, 28.1 µM (inactive). Also, the GI50 in the test with RXF 393 is 21.4 µM (inactive); in the test with SK-OV-3, 23.1 µM (inactive); with SNB-75 it was 17.8 µM (inactive); in the test with U-251 it was 20.1 µM (inactive).
For `O=C(Nc1cccc2ccccc12)Oc1ccccc1C1CCCCC1`, the GI50 was 21.4 µM (inactive) with A549; 15 µM (inactive) in the test on CCRF-CEM; 17.7 µM (inactive) in the test on HCT-116; 17.2 µM in the test with HCT-15; 15.8 µM (inactive) in the test with HOP-92; 23 µM (inactive) with IGROV-1. Besides, the GI50 in the test with LOX IMVI was 16.3 µM (inactive); in the test on MOLT-4, 15.9 µM (inactive); with Malme-3M, 17.7 µM (inactive); with NCI-H226 it was 18.2 µM (inactive); in the test with RXF 393, 15 µM (inactive); in the test with SK-OV-3 it was 30.8 µM (inactive). Besides, the GI50 in the test with SNB-75 is 13.9 µM (inactive); with U-251, 13.4 µM (inactive).
On to `CCOC(=O)C1=C(O)C(=O)c2ccoc2C1=O`, for which the GI50 in the test with 786-0 is > 100 µM (inactive); in the test on A549, > 100 µM (inactive); in the test on CAKI-1, > 100 µM (inactive); in the test with CCRF-CEM, > 100 µM (inactive); in the test on HCT-116, > 100 µM (inactive); in the test with HCT-15, above 100 µM. Further, the GI50 with HOP-92, with IGROV-1, in the test with LOX IMVI, in the test on MOLT-4, in the test on Malme-3M and in the test on NCI-H226 was > 100 µM (inactive) each time. In addition, the GI50 in the test with RXF 393, with SK-OV-3, in the test with SNB-75 and in the test with U-251 was > 100 µM (inactive) throughout.
As to `C=CCC1(CN(C)C)CC/C(=C\c2ccc(OC)cc2)C1=O` (centres undefined), the GI50 was 65.8 µM (inactive) in the test on 786-0; > 100 µM (inactive) in the test with A549; 34.8 µM (inactive) in the test with CCRF-CEM; 61.5 µM (inactive) in the test on HCT-116; 52 µM in the test with HCT-15; 83.6 µM (inactive) in the test on HOP-92. Moreover, the GI50 is > 100 µM (inactive) with IGROV-1; > 100 µM (inactive) with LOX IMVI; 28.7 µM (inactive) with MOLT-4; 79.3 µM (inactive) in the test on Malme-3M; > 100 µM (inactive) with NCI-H226; > 100 µM (inactive) in the test on RXF 393. Besides, the GI50 with SNB-75 is > 100 µM (inactive); in the test with U-251 it was 89.5 µM (inactive).
For `COc1cc2ccc(/C(C)=N/OC(C)=O)cc2cc1OC`, the GI50 is > 100 µM (inactive) in the test on 786-0; > 100 µM (inactive) in the test on A549; 66.5 µM (inactive) in the test on CCRF-CEM; > 100 µM (inactive) with HCT-116; above 100 µM in the test on HCT-15; 51.3 µM (inactive) with HOP-92. For the same compound, the GI50 in the test with IGROV-1 is > 100 µM (inactive); with LOX IMVI, > 100 µM (inactive); in the test on MOLT-4, 39.7 µM (inactive); in the test with Malme-3M it was > 100 µM (inactive); with NCI-H226, 53.6 µM (inactive); in the test with RXF 393, 25.4 µM (inactive). For the same compound, the GI50 was > 100 µM (inactive) in the test with SK-OV-3, 5.81 µM (inactive) in the test with SNB-75 and 86.9 µM (inactive) in the test on U-251.
On to `C[N+](C)(C)CC(=O)N/N=c1\cc(C(=O)Nc2ccc(N=O)cc2C#N)oc2cc(O)ccc12`, for which the GI50 with 786-0 is > 100 µM (inactive); in the test with A549, > 100 µM (inactive); in the test with CAKI-1, > 100 µM (inactive); in the test on CCRF-CEM, > 100 µM (inactive); with HCT-116, > 100 µM (inactive); in the test with HCT-15, above 100 µM. Also, the GI50 in the test on HOP-92, with IGROV-1, in the test with LOX IMVI, with MOLT-4, in the test with Malme-3M and with NCI-H226 was > 100 µM (inactive) throughout. The GI50 in the test on RXF 393, in the test on SK-OV-3, with SNB-75 and in the test on U-251 was > 100 µM (inactive) in each case.
Turning to `CCC(C)[C@@H](NCc1ccccc1)[C@H](OCc1ccccc1)[C@@H]1COC(C)(C)O1` (some centres undefined), the GI50 was 18.8 µM (inactive) in the test on 786-0; 25.4 µM (inactive) in the test with A549; 27.1 µM (inactive) in the test with CCRF-CEM; 13 µM (inactive) in the test with HCT-116; 15.7 µM with HCT-15; 10.4 µM (inactive) in the test on HOP-92. Also, the GI50 is 17.6 µM (inactive) with IGROV-1; 18 µM (inactive) with LOX IMVI; 32.5 µM (inactive) in the test on MDA-MB-435; 32.1 µM (inactive) with MDA-N; 25.5 µM (inactive) with MOLT-4; 18.4 µM (inactive) in the test with Malme-3M. Further, the GI50 in the test on NCI-H226 is 14.8 µM (inactive); with NCI/ADR-RES it was 21.1 µM (inactive); in the test with SK-OV-3, 30.5 µM (inactive); in the test with SNB-75, 32.6 µM (inactive); in the test on U-251, 19.2 µM (inactive).
